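Dose response: 5 concentrations. Exposure: 48 h. Format: 96-well plates. Endpoint: linear interpolation; highest concentration if not reached. GI50 is the concentration that inhibits growth by half.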 Active and inactive are the calls of the source. Cut-off read from the data, not from the text of the source: active = GI50 up to about 1.1 µM and inactive = higher.
What was measured:
Test in all cases: NCI anticancer screen, dose series, 48 h
[1] = system: OVCAR-4
[2] = system: HCT-116
[3] = system: CCRF-CEM
[4] = system: CAKI-1
[5] = system: BT-549
[6] = system: HOP-92
[7] = system: MOLT-4
[8] = system: M14
[9] = system: UACC-62
[10] = system: ACHN
[11] = system: SK-MEL-5
[12] = system: SN12C
[13] = system: U-251
[14] = system: SF-295
[15] = system: RXF 393
[16] = system: K562
[17] = system: MDA-N
[18] = system: NCI-H226
[19] = system: SR
[20] = system: HL-60

| Compound | GI50 [1] | GI50 [2] | GI50 [3] | GI50 [4] | GI50 [5] | GI50 [6] | GI50 [7] | GI50 [8] | GI50 [9] | GI50 [10] | GI50 [11] | GI50 [12] | GI50 [13] | GI50 [14] | GI50 [15] | GI50 [16] | GI50 [17] | GI50 [18] | GI50 [19] | GI50 [20] |
| --- | --- | --- | --- | --- | --- | --- | --- | --- | --- | --- | --- | --- | --- | --- | --- | --- | --- | --- | --- | --- |
| CC1=C(C(=O)OC(C)(C)C)C(c2ccc([N+](=O)[O-])cc2)C(C(=O)OC(C)(C)C)=C(C)N1 | 20.7 µM (inactive) | 20.5 µM (inactive) | 0.187 µM (active) | 28.9 µM (inactive) | 28 µM (inactive) | 15.4 µM (inactive) | 16.9 µM (inactive) | 23.9 µM (inactive) | 16.6 µM (inactive) | 21.4 µM (inactive) | 18.2 µM (inactive) | 19.8 µM (inactive) | 21.1 µM (inactive) | 20.2 µM (inactive) | 19.3 µM (inactive) | 25.4 µM (inactive) | 25.5 µM (inactive) | 21.3 µM (inactive) | – | – |
| Cc1sc2nc(-c3cc([N+](=O)[O-])c(Cl)cc3Cl)c(/C=N/NC(=N)N)n2c1C | 2.36 µM (inactive) | 4.15 µM (inactive) | 4.31 µM (inactive) | 11.9 µM (inactive) | 3.59 µM (inactive) | 7.13 µM (inactive) | 1.62 µM (inactive) | 2.76 µM (inactive) | 14.7 µM (inactive) | 5.22 µM (inactive) | 6.3 µM (inactive) | 5.65 µM (inactive) | 4.02 µM (inactive) | 13 µM (inactive) | 5.09 µM (inactive) | 3.06 µM (inactive) | – | 26.8 µM (inactive) | 0.411 µM (active) | – |
| COC(=O)CN1Cc2cc(C)cc(c2O)CN(CC(=O)OC)Cc2cc(C)cc(c2O)CN(CC(=O)OC)Cc2cc(C)cc(c2O)C1 | > 100 µM (inactive) | 12.6 µM (inactive) | 6.76 µM (inactive) | > 100 µM (inactive) | > 100 µM (inactive) | > 81.8 µM (inactive) | > 100 µM (inactive) | > 37.8 µM (inactive) | > 100 µM (inactive) | > 47.1 µM (inactive) | > 57.5 µM (inactive) | > 100 µM (inactive) | > 45.8 µM (inactive) | > 61.8 µM (inactive) | > 33.7 µM (inactive) | > 100 µM (inactive) | > 87.9 µM (inactive) | > 37.4 µM (inactive) | – | 15.4 µM (inactive) |
| N=C(N)C(/N=N\c1ccccc1)C(=N)N (configuration not stated) | 42.4 µM (inactive) | 33.5 µM (inactive) | 13.5 µM (inactive) | 38.4 µM (inactive) | 39.9 µM (inactive) | 20.3 µM (inactive) | 30.5 µM (inactive) | 40.7 µM (inactive) | 34.5 µM (inactive) | 64.9 µM (inactive) | 28 µM (inactive) | 36.6 µM (inactive) | 24 µM (inactive) | 32.9 µM (inactive) | > 100 µM (inactive) | 23.7 µM (inactive) | 19.5 µM (inactive) | 15 µM (inactive) | – | 24.7 µM (inactive) |
| C=CCN(CC=C)Cn1c(=S)sc2ccccc21 | 86.3 µM (inactive) | > 100 µM (inactive) | 22.2 µM (inactive) | 15.3 µM (inactive) | > 100 µM (inactive) | 36.4 µM (inactive) | 94.8 µM (inactive) | > 100 µM (inactive) | 55.1 µM (inactive) | > 100 µM (inactive) | 28.8 µM (inactive) | > 100 µM (inactive) | > 100 µM (inactive) | > 100 µM (inactive) | > 100 µM (inactive) | – | > 100 µM (inactive) | – | – | 16.5 µM (inactive) |
| CCOc1ccc(NC(=O)/C(=N\N)C(C(=O)OC)c2nc3ccc(Cl)cc3nc2O)cc1 (configuration not stated) | > 100 µM (inactive) | > 100 µM (inactive) | > 100 µM (inactive) | > 100 µM (inactive) | > 100 µM (inactive) | > 100 µM (inactive) | – | > 100 µM (inactive) | > 100 µM (inactive) | 45 µM (inactive) | > 100 µM (inactive) | > 100 µM (inactive) | > 100 µM (inactive) | > 100 µM (inactive) | > 100 µM (inactive) | – | – | > 100 µM (inactive) | 21.7 µM (inactive) | > 100 µM (inactive) |
| C[n+]1c2ccccc2n2c3ccccc3c(NCCc3ccccn3)c(C#N)c21 | 0.804 µM (active) | 0.933 µM (active) | 1.25 µM (inactive) | 1.98 µM (inactive) | 5.89 µM (inactive) | 5.97 µM (inactive) | 1 µM (active) | 2.38 µM (inactive) | 2.53 µM (inactive) | 1.49 µM (inactive) | 2.9 µM (inactive) | 1.23 µM (inactive) | 1.68 µM (inactive) | 2.32 µM (inactive) | 1.01 µM (active) | 2.21 µM (inactive) | 1.64 µM (inactive) | 2.55 µM (inactive) | – | 3.13 µM (inactive) |
